Assay results taken from US12655116B2, “Substituted isophthalic acid diamides” (Bayer Aktiengesellschaft, priority 2020, dated 2026).

What was measured:
ABUTH [1] = assay: Pre-emergence herbicidal action against ABUTH; type: in vivo, Abutilon theophrasti; details: Abutilon theophrasti, 504 h
Outline: (§1)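 Greenhouse pots of sandy loam held seeds covered with soil, onto which the compound was applied before emergence. An aqueous suspension or emulsion of WP or EC was used at 600 to 800 l/ha with 0.2% wetting agent. Percent damage was judged visually at 3 weeks.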

ALOMY [2] = assay: Pre-emergence herbicidal action against ALOMY; type: in vivo, Alopecurus myosuroides; details: Alopecurus myosuroides, 504 h; 80 g/ha, pre-emergence, scored visually after 3 weeks vs untreated controls (100% = plants have died, 0% = like control plants)
Outline: as §1

AMARE [3] = assay: Pre-emergence herbicidal action against AMARE; type: in vivo, Amaranthus retroflexus; details: Amaranthus retroflexus, 504 h, scored visually after 3 weeks vs untreated controls, 100% = plants have died, 0% = like control plants
Outline: as §1

AVEFA [4] = assay: Pre-emergence herbicidal action against AVEFA; type: in vivo, Avena fatua; details: Avena fatua, 504 h; 80 g/ha, pre-emergence
Outline: as §1

ECHCG [5] = assay: Pre-emergence herbicidal action against ECHCG; type: in vivo, Echinochloa crus-galli; details: Echinochloa crus-galli, 504 h, 80 g/ha
Outline: as §1

LOLRI [6] = assay: Pre-emergence herbicidal action against LOLRI; type: in vivo, Lolium rigidum; details: Lolium rigidum, 504 h, 80 g/ha
Outline: as §1

MATIN [7] = assay: Pre-emergence herbicidal action against MATIN; type: in vivo, Matricaria inodora; details: Tripleurospermum inodorum, 504 h
Outline: as §1

PHBPU [8] = assay: Pre-emergence herbicidal action against PHBPU; type: in vivo, Pharbitis purpurea; details: Ipomoea purpurea, 504 h, dosage 80 g/ha
Outline: as §1

POLCO = assay: Pre-emergence herbicidal action against POLCO; type: in vivo, Polygonum convolvulus; details: Fallopia convolvulus, 504 h, dosage 80 g/ha
Outline: as §1

SETVI [9] = assay: Pre-emergence herbicidal action against SETVI; type: in vivo, Setaria viridis; details: Setaria viridis, 504 h
Outline: as §1

STEME [10] = assay: Pre-emergence herbicidal action against STEME; type: in vivo, Stellaria media; details: Stellaria media, 504 h
Outline: as §1

VERPE [11] = assay: Pre-emergence herbicidal action against VERPE; type: in vivo, Veronica persica; details: Veronica persica, 504 h, dosage 80 g/ha
Outline: as §1

VIOTR [12] = assay: Pre-emergence herbicidal action against VIOTR; type: in vivo, Viola tricolor; details: Viola tricolor, 504 h
Outline: as §1

DIGSA [13] = assay: Pre-emergence herbicidal action against DIGSA; type: in vivo, Digitaria sanguinalis; details: Digitaria sanguinalis, 504 h
Outline: as §1

ABUTH [14] = assay: Post-emergence herbicidal action against ABUTH; type: in vivo, Abutilon theophrasti; details: Abutilon theophrasti, 504 h, visual assessment about 3 weeks after treatment vs untreated controls
Outline: (§2)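 Foliar application at one-leaf stage of formulated test compounds, aqueous spray at 600–800 l/ha with 0.2% wetting agent. Greenhouse, optimal conditions, ~3 weeks; damage scored visually in % relative to untreated plants.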

ALOMY [15] = assay: Post-emergence herbicidal action against ALOMY; type: in vivo, Alopecurus myosuroides; details: Alopecurus myosuroides, 504 h, dosage 20 g/ha, visual assessment about 3 weeks after treatment vs untreated controls
Outline: as §2

AMARE [16] = assay: Post-emergence herbicidal action against AMARE; type: in vivo, Amaranthus retroflexus; details: Amaranthus retroflexus, 504 h, 20 g/ha, visual assessment about 3 weeks after treatment, 100% = plants have died, 0% = like control plants
Outline: as §2

AVEFA [17] = assay: Post-emergence herbicidal action against AVEFA; type: in vivo, Avena fatua; details: Avena fatua, 504 h, 20 g/ha, visual assessment about 3 weeks after treatment, 100% = plants have died, 0% = like control plants
Outline: as §2

ECHCG [18] = assay: Post-emergence herbicidal action against ECHCG; type: in vivo, Echinochloa crus-galli; details: Echinochloa crus-galli, 504 h
Outline: as §2

HORMU = assay: Post-emergence herbicidal action against HORMU; type: in vivo, Hordeum murinum; details: Hordeum murinum, 504 h, dosage 20 g/ha
Outline: as §2

LOLRI [19] = assay: Post-emergence herbicidal action against LOLRI; type: in vivo, Lolium rigidum; details: Lolium rigidum, 504 h, dosage 20 g/ha
Procedure: Seeds of monocotyledonous and dicotyledonous weed and crop plants are laid out in sandy loam soil in wood-fiber pots, covered with soil and cultivated in a greenhouse under good growth conditions. 2 to 3 weeks after sowing, the test plants are treated at the one-leaf stage. The compounds of the invention, formulated in the form of wettable powders (WP) or as emulsion concentrates (EC), are then sprayed onto the green parts of the plants in the form of an aqueous suspension or emulsion at a water application rate equivalent to 600 to 800 l/ha, with addition of 0.2% wetting agent. After the test plants have been left to stand in the greenhouse under optimal growth conditions for about 3 weeks, the action of the preparations is assessed visually in comparison to untreated controls (herbicidal action in percent (%): 100% activity=the plants have died, 0% activity=like control plants). […] The tables below illustrate, in an illustrative manner, the post-emergence herbicidal action of the compounds of the invention, the herbicidal activity being stated in percent.

MATIN [20] = assay: Post-emergence herbicidal action against MATIN; type: in vivo, Matricaria inodora; details: Tripleurospermum inodorum, 504 h, dosage 20 g/ha
Outline: as §2

PHBPU [21] = assay: Post-emergence herbicidal action against PHBPU; type: in vivo, Pharbitis purpurea; details: Ipomoea purpurea, 504 h
Outline: as §2

SETVI [22] = assay: Post-emergence herbicidal action against SETVI; type: in vivo, Setaria viridis; details: Setaria viridis, 504 h
Outline: as §2

STEME [23] = assay: Post-emergence herbicidal action against STEME; type: in vivo, Stellaria media; details: Stellaria media, 504 h
Outline: as §2

VERPE [24] = assay: Post-emergence herbicidal action against VERPE; type: in vivo, Veronica persica; details: Veronica persica, 504 h, 20 g/ha
Outline: as §2

VIOTR [25] = assay: Post-emergence herbicidal action against VIOTR; type: in vivo, Viola tricolor; details: Viola tricolor, 504 h, 20 g/ha
Outline: as §2

DIGSA [26] = assay: Post-emergence herbicidal action against DIGSA; type: in vivo, Digitaria sanguinalis; details: Digitaria sanguinalis, 504 h
Outline: as §2

Work on `CCNC(=O)c1c(C(F)(F)F)ccc(C(=O)Nc2nnnn2C)c1SC` [Example 1-82] yielded a pest or weed control at 80 g/ha (ABUTH [1]; 80 g/ha, scored visually after 3 weeks vs untreated controls (100% = plants have died, 0% = like control plants)) of 100%, a pest or weed control at 20 g/ha (ABUTH [1]; dosage 20 g/ha, scored visually after 3 weeks vs untreated controls, 100% = plants have died, 0% = like control plants, read-out: Pre-emergence action against ABUTH (herbicidal activity in percent)) of 100% and a pest or weed control at 80 g/ha (ALOMY [2]) of 80%. The pest or weed control at 20 g/ha (AMARE [3]; 20 g/ha) was 90%, the pest or weed control at 80 g/ha (AMARE [3]; 80 g/ha) was 100% and the pest or weed control at 80 g/ha (AVEFA [4]) was 90%. For the same compound, the pest or weed control at 80 g/ha (ECHCG [5]) was 100%, the pest or weed control at 80 g/ha (LOLRI [6]) was 80% and the pest or weed control at 20 g/ha (MATIN [7]; dosage 20 g/ha) was 100%. For the same compound, the pest or weed control at 80 g/ha (MATIN [7]; dosage 80 g/ha) was 100%, the pest or weed control at 80 g/ha (PHBPU [8]) was 80% and the pest or weed control at 80 g/ha (POLCO) was 90%. For the same compound, the pest or weed control at 20 g/ha (SETVI [9]; dosage 20 g/ha) was 80%, the pest or weed control at 80 g/ha (SETVI [9]; dosage 80 g/ha) was 100% and the pest or weed control at 20 g/ha (STEME [10]; dosage 20 g/ha) was 100%. The pest or weed control at 80 g/ha (STEME [10]; dosage 80 g/ha) was 100%, the pest or weed control at 80 g/ha (VERPE [11]) was 90% and the pest or weed control at 20 g/ha (VIOTR [12]; dosage 20 g/ha) was 100%. For the same compound, the pest or weed control at 80 g/ha (VIOTR [12]; dosage 80 g/ha) was 100%, the pest or weed control at 20 g/ha (DIGSA [13]; dosage 20 g/ha) was 100% and the pest or weed control at 80 g/ha (DIGSA [13]; dosage 80 g/ha) was 100%. For the same compound, the pest or weed control at 5 g/ha (ABUTH [14]; dosage 5 g/ha) was 90%, the pest or weed control at 20 g/ha (ABUTH [14]; dosage 20 g/ha) was 90% and the pest or weed control at 20 g/ha (ALOMY [15]) was 90%. It also gave a pest or weed control at 20 g/ha (AMARE [16]) of 90%, a pest or weed control at 20 g/ha (AVEFA [17]) of 90% and a pest or weed control at 5 g/ha (ECHCG [18]; dosage 5 g/ha) of 80%. The pest or weed control at 20 g/ha (ECHCG [18]; dosage 20 g/ha) was 90%, the pest or weed control at 20 g/ha (HORMU) was 90% and the pest or weed control at 20 g/ha (LOLRI [19]) was 80%. It also gave a pest or weed control at 20 g/ha (MATIN [20]) of 80%, a pest or weed control at 5 g/ha (PHBPU [21]; dosage 5 g/ha) of 80% and a pest or weed control at 20 g/ha (PHBPU [21]; dosage 20 g/ha) of 90%. The pest or weed control at 5 g/ha (SETVI [22]; dosage 5 g/ha) was 80%, the pest or weed control at 20 g/ha (SETVI [22]; dosage 20 g/ha) was 90% and the pest or weed control at 20 g/ha (STEME [23]; 20 g/ha) was 90%. For the same compound, the pest or weed control at 5 g/ha (STEME [23]; dosage 5 g/ha) was 90%, the pest or weed control at 20 g/ha (VERPE [24]) was 80% and the pest or weed control at 20 g/ha (VIOTR [25]) was 90%. It also gave a pest or weed control at 5 g/ha (DIGSA [26]; 5 g/ha) of 90% and a pest or weed control at 20 g/ha (DIGSA [26]; 20 g/ha) of 90%.
